Activity calls are given as the source filed them.
Columns and labels:
[1] = target: Glucose-6-phosphate 1-dehydrogenase (Homo sapiens, UniProt P11413); assay: inhibition of Homo sapiens G6PD, dose series – biochemical, fluorescence, selectivity assay for P. falciparum G6PD inhibitor project, dose response (AID 504792); assay type: functional
[2] = luciferase reporter signal suppression in cells – H4 neuroglioma cells, luminescence, dose response (AID 1990); assay type: functional, cell-based
BJ [3] = assay: BJ-TERT fibroblast viability loss – cell-based, RAS-independent, luminescence, dose response (AID 1933); assay type: functional; details: Homo sapiens
[4] = Luminescence Cell-Based Dose Response HTS to Identify Inhibitors of 5'UTR Stem-Loop Driven Prion Protein mRNA Translation in H4 Neuroglioblastoma Cells. [Related pubchem assays: 1827 (Project Summary), 1813 (Primary HTS)]; assay type: functional
BJ [5] = assay: cells; assay type: functional, cell-based; details: Homo sapiens
BJ [6] = assay: BJ-TERT-LT-ST fibroblast viability loss – cell-based, RAS-independent, luminescence, dose response (AID 1935); assay type: functional; details: Homo sapiens;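 also: BJ fibroblasts immortalized with TERT plus LT and ST oncogenes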
[7] = DRD fibroblast viability loss – cell-based, non-viral oncogenic, luminescence, dose response (AID 1934); assay type: functional; details: Homo sapiens
[8] = HEK-293T viability loss after treatment – luminescence, T-cell screen hits, cytotoxicity control for TCR NF-kB inhibitor project, dose response (AID 489026); assay type: functional, cell-based;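 also: cells exposed to compound about 14 hours before the viability readout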
Escherichia coli [9] = assay: microbe, parasite or virus in culture
HEK293 [10] = assay: inhibition of NOD1-driven NF-kB reporter – cell-based, luminescence, uHTS, primary screen (AID 1578); assay type: functional; details: Homo sapiens
HEK293 [11] = assay: cells; assay type: functional, cell-based; details: Homo sapiens
HEK293 [12] = assay: cells; assay type: functional, cell-based; details: Homo sapiens; remark: listed apart in the source
HEK293 [13] = assay: NOD2 signaling inhibitors in MDP-stimulated cells, cell-based, uHTS, luminescence (AID 2001); assay type: functional; details: Homo sapiens
[14] = HIV-1 AD8 envelope cell-cell fusion blockers – cherry-pick, dose response (AID 652062); assay type: functional, cell-based;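 also: luciferase signal from cell-cell fusion driven by HIV-1 clade B AD8 Env; potency is for inhibitors of fusion seen as a drop in luminescence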
[15] = target: T1, Corticotropin-releasing factor receptor 2/Corticotropin-releasing factor-binding protein (Homo sapiens, UniProt P24387+Q13324); assay: Dose Response confirmation of uHTS hits for small molecule antagonists of the CRF-binding protein and CRF-R2 receptor complex.; assay type: functional; details: read-out: IC50_Mean
T1 sequence (Q13324 whole entry): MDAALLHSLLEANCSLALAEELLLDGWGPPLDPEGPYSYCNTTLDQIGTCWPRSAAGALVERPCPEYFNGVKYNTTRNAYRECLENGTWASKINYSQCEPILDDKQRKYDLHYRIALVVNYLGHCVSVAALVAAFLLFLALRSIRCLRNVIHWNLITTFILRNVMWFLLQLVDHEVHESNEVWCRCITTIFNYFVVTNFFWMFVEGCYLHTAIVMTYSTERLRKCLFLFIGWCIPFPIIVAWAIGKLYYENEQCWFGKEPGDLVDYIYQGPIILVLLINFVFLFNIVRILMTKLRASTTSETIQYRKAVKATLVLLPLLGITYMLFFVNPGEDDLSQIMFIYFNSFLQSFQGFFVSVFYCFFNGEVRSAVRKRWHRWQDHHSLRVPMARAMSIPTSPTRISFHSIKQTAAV
T1 sequence (P24387 whole entry): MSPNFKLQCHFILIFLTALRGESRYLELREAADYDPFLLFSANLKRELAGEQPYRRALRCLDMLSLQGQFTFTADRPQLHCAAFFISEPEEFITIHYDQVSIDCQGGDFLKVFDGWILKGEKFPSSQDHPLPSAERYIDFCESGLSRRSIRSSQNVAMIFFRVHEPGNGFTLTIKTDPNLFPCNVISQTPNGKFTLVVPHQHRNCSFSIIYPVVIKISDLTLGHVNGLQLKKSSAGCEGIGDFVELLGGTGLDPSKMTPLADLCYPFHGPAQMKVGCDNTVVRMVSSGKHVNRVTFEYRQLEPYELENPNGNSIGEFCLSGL

[16] = target: T1, Corticotropin-releasing factor receptor 2/Corticotropin-releasing factor-binding protein; assay: activators of CRF receptor 2 with binding protein – uHTS hits, confirmation (AID 602473); assay type: functional; details: read-out: EC50_Mean
[17] = target: T2, Rac GTPase-activating protein 1 (Homo sapiens, UniProt Q9H0H5); assay: blockers of MgcRacGAP-driven Rac1 GTP hydrolysis – biochemical, ADP Hunter fluorescence, primary and confirmatory, confirmation (AID 624330); assay type: functional
T2 sequence (Q9H0H5 whole entry): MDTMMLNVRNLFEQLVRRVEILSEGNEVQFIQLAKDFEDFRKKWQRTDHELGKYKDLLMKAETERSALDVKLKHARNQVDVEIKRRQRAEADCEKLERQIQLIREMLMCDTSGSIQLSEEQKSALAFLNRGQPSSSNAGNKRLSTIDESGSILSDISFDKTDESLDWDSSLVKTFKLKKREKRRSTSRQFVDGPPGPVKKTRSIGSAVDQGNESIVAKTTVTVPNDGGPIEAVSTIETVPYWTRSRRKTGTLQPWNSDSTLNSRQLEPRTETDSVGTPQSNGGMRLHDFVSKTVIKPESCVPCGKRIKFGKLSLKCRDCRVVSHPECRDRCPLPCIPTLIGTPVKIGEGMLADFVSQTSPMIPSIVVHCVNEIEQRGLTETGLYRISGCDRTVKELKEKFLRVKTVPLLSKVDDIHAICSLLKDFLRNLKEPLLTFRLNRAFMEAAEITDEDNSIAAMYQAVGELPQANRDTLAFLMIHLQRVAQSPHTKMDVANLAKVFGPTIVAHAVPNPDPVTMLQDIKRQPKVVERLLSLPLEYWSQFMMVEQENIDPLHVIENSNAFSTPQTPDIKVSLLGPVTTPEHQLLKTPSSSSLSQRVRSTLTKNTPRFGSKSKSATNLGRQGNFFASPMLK

[18] = target: T3, DNA repair protein RAD52 homolog (Homo sapiens, UniProt P43351); assay type: functional, biochemical
T3 sequence (P43351 whole entry): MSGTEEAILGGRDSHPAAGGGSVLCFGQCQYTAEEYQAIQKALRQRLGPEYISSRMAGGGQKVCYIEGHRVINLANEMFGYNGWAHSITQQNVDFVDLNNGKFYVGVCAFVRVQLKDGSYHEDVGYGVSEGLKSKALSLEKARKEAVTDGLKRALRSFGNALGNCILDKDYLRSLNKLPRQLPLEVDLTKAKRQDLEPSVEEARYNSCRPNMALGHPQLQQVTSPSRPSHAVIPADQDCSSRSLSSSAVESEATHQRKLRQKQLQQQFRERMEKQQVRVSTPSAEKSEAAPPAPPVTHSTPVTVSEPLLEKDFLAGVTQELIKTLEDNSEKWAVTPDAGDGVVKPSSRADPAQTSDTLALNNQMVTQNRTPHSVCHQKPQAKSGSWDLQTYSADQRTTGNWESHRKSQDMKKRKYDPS

Escherichia coli [19] = assay: microbe, parasite or virus in culture; remark: listed apart in the source
[20] = target: T4, Short transient receptor potential channel 4 (Mus musculus, UniProt Q9QUQ5); assay: block of DAMGO-driven TRPC4 calcium entry – cell-based, HEK293 TRPC4/mu-opioid, Fluo-4 calcium, dose response (AID 434942); assay type: functional;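 also: potency of inhibitors blocking the TRPC4 calcium response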
T4 sequence (Q9QUQ5 whole entry): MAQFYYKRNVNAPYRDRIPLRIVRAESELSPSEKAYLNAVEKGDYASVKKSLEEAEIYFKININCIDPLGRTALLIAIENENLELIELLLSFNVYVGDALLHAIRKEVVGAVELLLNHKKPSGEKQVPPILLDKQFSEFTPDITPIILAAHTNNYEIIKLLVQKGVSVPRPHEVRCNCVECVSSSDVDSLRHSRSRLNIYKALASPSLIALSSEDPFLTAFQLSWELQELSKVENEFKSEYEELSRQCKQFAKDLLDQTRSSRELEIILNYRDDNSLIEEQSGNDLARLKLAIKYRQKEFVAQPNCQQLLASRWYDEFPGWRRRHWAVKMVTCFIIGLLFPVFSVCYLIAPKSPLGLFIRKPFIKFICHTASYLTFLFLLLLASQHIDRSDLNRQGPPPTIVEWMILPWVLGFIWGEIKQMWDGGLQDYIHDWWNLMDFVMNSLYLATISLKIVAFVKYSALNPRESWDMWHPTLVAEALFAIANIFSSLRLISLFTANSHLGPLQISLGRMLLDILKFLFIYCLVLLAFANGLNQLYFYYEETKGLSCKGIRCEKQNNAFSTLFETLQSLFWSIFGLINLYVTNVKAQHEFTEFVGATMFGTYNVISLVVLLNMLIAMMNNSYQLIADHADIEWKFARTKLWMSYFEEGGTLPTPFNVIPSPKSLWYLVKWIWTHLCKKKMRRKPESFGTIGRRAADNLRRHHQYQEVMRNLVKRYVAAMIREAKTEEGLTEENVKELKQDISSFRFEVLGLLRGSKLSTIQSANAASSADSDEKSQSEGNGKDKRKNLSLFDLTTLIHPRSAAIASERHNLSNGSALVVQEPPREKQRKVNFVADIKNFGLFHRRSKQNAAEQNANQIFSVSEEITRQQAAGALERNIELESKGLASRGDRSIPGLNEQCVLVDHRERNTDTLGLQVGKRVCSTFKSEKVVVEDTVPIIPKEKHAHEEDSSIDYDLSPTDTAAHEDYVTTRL

[21] = target: Glyceraldehyde-3-phosphate dehydrogenase (Homo sapiens, UniProt P04406)
[22] = target: T5, Alkaline phosphatase, tissue-nonspecific isozyme (Homo sapiens, UniProt P05186); assay: potency against alkaline phosphatase TNAP – biochemical, luminescent, dose response, SAR follow-up (AID 1056)
T5 sequence (P05186 whole entry): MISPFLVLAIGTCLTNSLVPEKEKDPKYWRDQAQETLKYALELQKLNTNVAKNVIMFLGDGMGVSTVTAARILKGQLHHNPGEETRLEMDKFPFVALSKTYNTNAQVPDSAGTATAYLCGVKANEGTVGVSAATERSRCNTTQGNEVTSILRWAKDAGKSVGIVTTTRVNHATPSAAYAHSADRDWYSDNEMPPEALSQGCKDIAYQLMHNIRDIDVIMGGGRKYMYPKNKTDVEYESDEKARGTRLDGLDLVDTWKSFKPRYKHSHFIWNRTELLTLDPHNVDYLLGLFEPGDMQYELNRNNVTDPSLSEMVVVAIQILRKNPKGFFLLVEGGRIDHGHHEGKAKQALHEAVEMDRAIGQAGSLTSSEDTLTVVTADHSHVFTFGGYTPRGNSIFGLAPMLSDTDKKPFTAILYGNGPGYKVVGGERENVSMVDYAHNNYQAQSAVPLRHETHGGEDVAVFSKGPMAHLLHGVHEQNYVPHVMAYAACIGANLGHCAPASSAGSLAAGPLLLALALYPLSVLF

Chain of Glucose-6-phosphate 1-dehydrogenase (P11413 whole entry): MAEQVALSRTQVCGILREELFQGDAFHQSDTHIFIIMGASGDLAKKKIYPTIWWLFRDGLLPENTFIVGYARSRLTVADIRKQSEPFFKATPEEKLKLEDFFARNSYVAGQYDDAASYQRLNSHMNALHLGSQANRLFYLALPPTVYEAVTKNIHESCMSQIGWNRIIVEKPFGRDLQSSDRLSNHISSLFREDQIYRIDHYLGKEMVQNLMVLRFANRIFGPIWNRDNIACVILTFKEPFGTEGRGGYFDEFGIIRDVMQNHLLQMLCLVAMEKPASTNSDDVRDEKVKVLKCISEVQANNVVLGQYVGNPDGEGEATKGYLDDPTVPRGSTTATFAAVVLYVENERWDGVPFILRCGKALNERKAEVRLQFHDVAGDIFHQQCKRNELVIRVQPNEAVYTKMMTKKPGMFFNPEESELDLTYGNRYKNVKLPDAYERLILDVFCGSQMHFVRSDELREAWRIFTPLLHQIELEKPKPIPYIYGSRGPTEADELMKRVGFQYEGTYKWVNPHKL
Chain of Glyceraldehyde-3-phosphate dehydrogenase (P04406 whole entry): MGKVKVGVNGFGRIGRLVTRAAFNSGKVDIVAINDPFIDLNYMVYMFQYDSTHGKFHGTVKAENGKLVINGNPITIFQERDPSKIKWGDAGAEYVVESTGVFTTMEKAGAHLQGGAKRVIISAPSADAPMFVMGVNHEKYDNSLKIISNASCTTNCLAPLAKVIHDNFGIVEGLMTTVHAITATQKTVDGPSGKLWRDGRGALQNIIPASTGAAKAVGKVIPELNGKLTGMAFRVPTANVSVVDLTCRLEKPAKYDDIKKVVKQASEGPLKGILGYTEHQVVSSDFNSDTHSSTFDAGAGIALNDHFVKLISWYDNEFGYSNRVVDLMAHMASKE

c1ccc(OCc2nnc3n2N=C(c2ccccc2)CS3)cc1
IC50 [1]: > 80 µM (inactive)

COc1ccc(C2=NOC(C(=O)NCc3ccc(F)cc3)C2)cc1OC (centres undefined)
EC50 [2]: 11.2 µM (active)
EC50 (BJ [3]): 1.54 µM (inconclusive)
EC50 [4]: > 120 µM (not active)
EC50 (BJ [5]): 26 µM (active)
EC50 (BJ [6]): 5.72 µM (inconclusive)
EC50 [7]: 18.3 µM (active)
IC50 [8]: > 80 µM (inactive)

C=CCOc1cccc(C(=O)N2CCCC(CCC(=O)NCc3ccccc3F)C2)c1 (centres undefined)
AC50 (Escherichia coli [9]): 41.3 µM (active)

O=C(Nc1nc(-c2ccc3c(c2)OCO3)cs1)c1ccncc1
EC50 (HEK293 [10]): 3.32 µM (active)
IC50 (HEK293 [11]): 4.5 µM (active)
IC50 (HEK293 [12]): 11 µM (active)
IC50 (HEK293 [13]): 4.79 µM (active)
AC50 [14]: 4.67 µM (active)

Cc1ccc2[nH]c(-c3cccc(F)c3)cc(=O)c2c1
IC50 [8]: > 80 µM (inactive)

NCC[C@H](O)C(=O)N[C@@H]1C[C@H](N)[C@@H](O[C@H]2O[C@H](CN)[C@@H](O)[C@H](O)[C@H]2O)[C@H](O)[C@H]1O[C@H]1O[C@H](CO)[C@@H](O)[C@H](N)[C@H]1O
IC50 [15]: > 47.1 µM (inactive)
EC50 [16]: > 53 µM (inactive)
IC50 [17]: 113 µM (active)
AC50 [18]: 5.91 µM (active)
AC50 (Escherichia coli [19]): 14.9 µM (active)
AC50 (Escherichia coli [9]): 4.69 µM (active)

C/C(Cn1nnc([N+](=O)[O-])n1)=N\NC(=O)c1ccc(O)cc1O
IC50 [1]: > 80 µM (inactive)
AC50 (Escherichia coli [19]): 84.9 µM (active)

CCOc1ccccc1NS(=O)(=O)c1c(C)noc1C
IC50 [1]: > 80 µM (inactive)

Clc1ccc(-c2csc(-c3cccnc3)n2)s1
AC50 (Escherichia coli [9]): 276 µM (active)

Cc1ccccc1Cn1c(=N)n(CC(O)c2ccco2)c2ccccc21 (centres undefined)
EC50 [20]: 0.668 µM (active)

Cn1c(C(=O)OCC(=O)NCC2CCCO2)cc2sccc21 (centres undefined)
AC50 (Escherichia coli [19]): 25.8 µM (active)
AC50 (Escherichia coli [9]): 149 µM (active)

O=C(CSc1nc2ccccc2c(=O)n1CCCO)N1CCc2ccccc21
EC50 [20]: 0.596 µM (active)

CCCCc1nc2ccccc2c(N)c1CCC.O=C(O)c1cc([N+](=O)[O-])ccc1Cl
EC50 [20]: 1.19 µM (active)

c1cc2c(cc1NC1CCCCCC1)OCO2
IC50 [1]: > 80 µM (inactive)
IC50 [17]: 48.4 µM (active)

O=C1C2CC=CCC2C(=O)N1c1nc[nH]n1 (centres undefined)
IC50 [21]: > 100 µM (not active)
IC50 [22]: > 100 µM (inactive)

From ChEMBL document CHEMBL1201862, “PubChem BioAssay data set” (2004)
